In publication PMC6331899, “Soluble Epoxide Hydrolase Inhibitory Activity of Selaginellin Derivatives from Selaginella tamariscina” (Molecules, 2015):

What was measured:
[1] = target: T1, Soluble epoxide hydrolases (human recombinant) (Homo sapiens, UniProt P34913); test: biochemical; conditions: triplicate; for inhibition at 100 µM: PHOME substrate, read-out: Inhibitory Rate at 100 μM (%) sEH; for IC50: PHOME hydrolysis, pH 7.0, 37 °C, read-out: sEH IC50
T1 construct: purchased Cayman (Ann Arbor, MI, USA) 10011669
T1 sequence (P34913 1-555): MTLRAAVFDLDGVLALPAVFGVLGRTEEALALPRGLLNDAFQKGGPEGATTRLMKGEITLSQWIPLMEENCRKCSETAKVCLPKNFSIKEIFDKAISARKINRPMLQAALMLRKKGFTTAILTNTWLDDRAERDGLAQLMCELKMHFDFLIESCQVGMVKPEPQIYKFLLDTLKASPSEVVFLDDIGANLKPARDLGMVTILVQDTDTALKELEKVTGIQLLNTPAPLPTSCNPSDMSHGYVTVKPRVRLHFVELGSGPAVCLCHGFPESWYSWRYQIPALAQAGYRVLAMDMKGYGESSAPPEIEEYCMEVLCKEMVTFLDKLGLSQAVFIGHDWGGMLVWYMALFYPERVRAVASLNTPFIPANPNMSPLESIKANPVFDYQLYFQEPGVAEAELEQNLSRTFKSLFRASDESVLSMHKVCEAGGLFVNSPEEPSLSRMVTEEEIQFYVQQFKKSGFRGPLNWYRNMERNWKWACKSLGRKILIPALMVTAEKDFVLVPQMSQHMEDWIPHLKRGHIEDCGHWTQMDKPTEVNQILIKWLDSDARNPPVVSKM
Experimental: To evaluate the binding mode between sEH and the inhibitors, a kinetic study was performed using various inhibitors and substrate concentrations.
NMR spectra was obtained on Bruker Advance 600 and 300 MHz (Bruker; Rheinstetten, Germany) spectrometer. Column chromatography was performed using silica gel (Kieselgel 60; 70–230; and 230–400 mesh; Merck; Darmstadt, Germany) and YMC RP-18 resins. Thin layer chromatography (TLC) was performed using pre-coated silica-gel 60 F254 and RP-18 F254S plates (both 0.25 mm; Merck; Darmstadt, Germany). Spots were visualized by spraying with 10% aqueous H2SO4 solution followed by heating. Methanol; acetonitrile (Sigma-Aldrich; St. Louis, MO, USA) and trifluoroacetic acid (Alfa Aesar; Ward Hill, MA, USA) used in this study were of HPLC grade and the distilled water was prepared by the ultra-pure water manufacturing device (Optimos; Sinhan Science Tech, Daejeon, Korea). […] The quantitative analysis for three selaginellins was carried out on Optimapak C18 (250 mm × 4.6 mm I.D.; 5 μm) column.

tyrosinase = test: Tyrosinase inhibition; format: biochemical; conditions: triplicate
sEH = target: T2, sEH (Homo sapiens, UniProt P34913); test: sEH kinetic analysis (Lineweaver-Burk, secondary plot); format: biochemical; conditions: for sEH inhibition type: Lineweaver-Burk plots; for Ki: secondary re-plot of slope vs [I], Equation (3)
T2 construct: purchased Cayman (Ann Arbor, MI, USA) 10011669
T2 sequence (P34913 1-555): T1 sequence (P34913 1-555)
Experimental: To evaluate the inhibitory activity of compounds 1–3 on sEH, their hydrolysis effects on the formation of 6-methoxy-2-naphthaldehyde from (3-phenyl-oxiranyl)-acetic acid cyano-(6-methoxy-naphthalen-2-yl)-methyl ester (PHOME) were evaluated by fluorometric determination using an excitation wavelength of 330 nm and emission wavelength of 465 nm. […]. To evaluate the binding mode between sEH and the inhibitors, a kinetic study was performed using various inhibitors and substrate concentrations.
Secondary plots can be constructed from (3) Slope=km/Vmax+Km[I]/VmaxKi

SMILES | inhibition at 100 µM [1] [%] | IC50 [1] [µM] | Inhibitory Rate at 100 μM (%) Tyrosinase (tyrosinase) [%] | sEH inhibition type (sEH) | Ki (sEH) [µM]
Cc1ccc(-c2ccc(O)cc2)c(C(=C2C=CC(=O)C=C2)c2ccc(O)cc2)c1C#Cc1ccc(O)cc1 [Compound 2, selaginellin B] | 89.3 ± 2.1 | 8.2 ± 2.2 | 32.5 ± 1.5 | Noncompetitive | 6.8
O=C1C=CC(=C(c2ccc(O)cc2)c2c(-c3ccc(O)cc3)ccc(CO)c2C#Cc2ccc(O)cc2)C=C1 [Compound 3, selaginellin] | 94.5 ± 5 | 4.2 ± 0.2 | 40.1 ± 3.2 | Noncompetitive | 1.8
O=C1C=CC(=C(c2ccc(O)cc2)c2c(C#Cc3ccc(O)cc3)cccc2-c2ccc(O)cc2)C=C1 [Compound 1, selaginellin A] | 92.5 ± 0.8 | 3.1 ± 0.1 | 36.2 ± 2.1 | Noncompetitive | 2.9
